Results as given in ChEMBL document CHEMBL1201862, “PubChem BioAssay data set” (2004).
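All cell lines were grown in 96-well plates and treated with compound for 48 hours. GI50 marks 50% less growth.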 Active and inactive are the calls of the source. Rule as the data show it: active = GI50 up to about 1.1 µM and inactive = higher.

Legend:
Assay in all cases: growth of human tumour cells (NCI), 48 h
[1] = test system: M19-MEL
[2] = test system: DMS-114
[3] = test system: DMS-273
[4] = test system: XF498
[5] = test system: LXFL 529
[6] = test system: DLD-1
[7] = test system: SNB-78
[8] = test system: RXF 631
[9] = test system: HOP-18

| Structure (SMILES) | GI50 [1] | GI50 [2] | GI50 [3] | GI50 [4] | GI50 [5] | GI50 [6] | GI50 [7] | GI50 [8] | GI50 [9] |
| --- | --- | --- | --- | --- | --- | --- | --- | --- | --- |
| O=C(N/N=C1/C(=O)N(c2ccc(Cl)cc2Cl)C(=O)C(=O)C1c1nc2ccccc2o1)c1ccccc1O (centres undefined) | 38.3 µM (inactive) | 26.4 µM (inactive) | > 10 µM (inactive) | 20.4 µM (inactive) | 37.6 µM (inactive) | 33 µM (inactive) | – | – | – |
| NCCSCC(N)C(=O)O (centres undefined) | > 497 µM (inactive) | > 497 µM (inactive) | > 497 µM (inactive) | > 497 µM (inactive) | > 497 µM (inactive) | > 497 µM (inactive) | > 497 µM (inactive) | – | – |
| COC(=O)[C@H]1CC(=O)C=C2CCCC21 (some centres undefined) | > 100 µM (inactive) | > 100 µM (inactive) | > 100 µM (inactive) | > 100 µM (inactive) | > 100 µM (inactive) | > 100 µM (inactive) | – | > 100 µM (inactive) | – |
| O=C(N/C(=C\c1ccc(Br)cc1)c1nc2ccccc2s1)c1ccccc1 | 70.3 µM (inactive) | 46.5 µM (inactive) | 91.6 µM (inactive) | > 100 µM (inactive) | 54.5 µM (inactive) | 46.9 µM (inactive) | > 100 µM (inactive) | 87.3 µM (inactive) | > 100 µM (inactive) |
| O=c1ccc2ccc(O)c3c4c(O)ccc5ccc(=O)c(c1c23)c54 | 0.69 µM (active) | 1.51 µM (inactive) | 1.95 µM (inactive) | 1.79 µM (inactive) | – | 1.64 µM (inactive) | – | – | 2.26 µM (inactive) |
| COc1ccccc1-c1cc(=O)c2ccccc2[nH]1 | > 100 µM (inactive) | – | 57.9 µM (inactive) | – | > 100 µM (inactive) | > 100 µM (inactive) | > 100 µM (inactive) | – | – |
| O=C(NC(=O)c1c(Cl)nc2sccn12)Nc1ccc(Cl)cc1 | > 100 µM (inactive) | > 71.3 µM (inactive) | > 46.3 µM (inactive) | 17.9 µM (inactive) | – | > 48.3 µM (inactive) | 43.1 µM (inactive) | > 79.4 µM (inactive) | – |
| C=C1C(=O)OC2(C)C3CCC(C3)C12 (centres undefined) | 44.8 µM (inactive) | 46.6 µM (inactive) | 68.4 µM (inactive) | 29.1 µM (inactive) | – | 51.1 µM (inactive) | 34.4 µM (inactive) | – | > 100 µM (inactive) |
| COC(=O)C1(C)C=C(Nc2ccccc2)C(=O)N1c1ccccc1 (centres undefined) | > 100 µM (inactive) | > 100 µM (inactive) | – | > 100 µM (inactive) | > 100 µM (inactive) | > 100 µM (inactive) | > 100 µM (inactive) | 35.5 µM (inactive) | > 100 µM (inactive) |
| O=C(CSC(=S)N1CCOCC1)Nc1nc2c(s1)CCCC2 | 92.5 µM (inactive) | 30.1 µM (inactive) | > 100 µM (inactive) | 50.1 µM (inactive) | > 100 µM (inactive) | > 100 µM (inactive) | > 100 µM (inactive) | – | – |
| C=CCC1(C)CCCCC1(O)C[S+]([O-])c1ccccc1 (centres undefined) | > 100 µM (inactive) | > 100 µM (inactive) | > 100 µM (inactive) | – | – | > 100 µM (inactive) | > 100 µM (inactive) | > 100 µM (inactive) | > 100 µM (inactive) |
| C=C[C@@H](C)[C@]1(C(=O)OC)CCCC12OCCO2 | > 100 µM (inactive) | > 100 µM (inactive) | 39.3 µM (inactive) | > 100 µM (inactive) | > 100 µM (inactive) | > 100 µM (inactive) | – | – | > 100 µM (inactive) |
| N#CCCN(CCC#N)c1ccc(/C=N\c2nc(-c3ccccc3)cs2)cc1 | > 100 µM (inactive) | 73.3 µM (inactive) | > 100 µM (inactive) | 56.8 µM (inactive) | > 100 µM (inactive) | > 100 µM (inactive) | > 100 µM (inactive) | > 100 µM (inactive) | – |
| COc1cc(O)c(C(=O)CC(C)=O)c(OC)c1 | – | > 100 µM (inactive) | > 100 µM (inactive) | > 100 µM (inactive) | > 100 µM (inactive) | > 100 µM (inactive) | > 100 µM (inactive) | – | > 100 µM (inactive) |
| O=C1C[C@@H]2C(COC(=O)c3ccccc3)N(OCc3ccccc3)C[C@@H]2O1 (some centres undefined) | > 100 µM (inactive) | > 100 µM (inactive) | > 100 µM (inactive) | – | > 100 µM (inactive) | > 100 µM (inactive) | > 100 µM (inactive) | > 100 µM (inactive) | > 100 µM (inactive) |
| O=S(=O)(O)SC/C=C\CSS(=O)(=O)O | > 100 µM (inactive) | > 100 µM (inactive) | > 100 µM (inactive) | > 100 µM (inactive) | > 100 µM (inactive) | > 100 µM (inactive) | > 100 µM (inactive) | > 100 µM (inactive) | > 100 µM (inactive) |
| O=S(O)CCCSSCCCCSSCCCS(=O)O | > 100 µM (inactive) | > 100 µM (inactive) | > 100 µM (inactive) | > 100 µM (inactive) | > 100 µM (inactive) | > 100 µM (inactive) | > 100 µM (inactive) | – | > 100 µM (inactive) |
| O=[N+]([O-])c1cccc(Nc2nc(Cl)nc(Cl)n2)c1 | > 100 µM (inactive) | – | > 100 µM (inactive) | > 100 µM (inactive) | > 100 µM (inactive) | > 100 µM (inactive) | > 100 µM (inactive) | > 100 µM (inactive) | – |
| Oc1ccc2c(c1)CC[N+]1=C2CCC2CCCC21 (centres undefined) [QUINDONIUM BROMIDE] | > 100 µM (inactive) | > 100 µM (inactive) | > 100 µM (inactive) | – | > 100 µM (inactive) | > 100 µM (inactive) | – | – | – |
| CCC1(O)C(=O)OCc2c1cc1n(c2=O)Cc2cc3c(N)cccc3nc2-1 (centres undefined) [RS-9-Aminocamptothecin] | 0.0588 µM (active) | < 0.0104 µM (active) | < 0.01 µM (active) | 0.145 µM (active) | 0.341 µM (active) | 0.859 µM (active) | 0.995 µM (active) | 0.0471 µM (active) | 0.0424 µM (active) |
